Data taken from ChEMBL document CHEMBL5096147, “Glycogen Synthase Kinase 3β: A New Gold Rush in Anti-Alzheimer's Disease Multitarget Drug Discovery?” (J Med Chem, 2021).

Assays:
Adenosine kinase = Adenosine kinase (Homo sapiens, UniProt P55263); assay: Inhibition of human wild type AK expressed in Escherichia coli using [2,8- 3H]-Ado and ATP as substrate by radiometric analysis
[1] = biological target: T1, Glycogen synthase kinase-3 beta (Homo sapiens, UniProt P49841)
Description: Inhibition of GSK-3beta (unknown origin)

Beta-secretase 1 = Beta-secretase 1 (Homo sapiens, UniProt P56817); assay: Inhibition of BACE-1 (unknown origin) using M-240 (methoxycoumarin-Ser-Glu-Val-Asn-Leu-Asp-Ala-Glu-Phe-Lys-dinitrophenyl) peptide as substrate preincubated for 60 mins followed by substrate addition and measured after 15 mins by fluorescence based analysis
[2] = biological target: T1, Glycogen synthase kinase-3 beta; assay: Inhibition of recombinant human GSK-3beta incubated for 30 mins using prephosphorylated polypeptide as substrate in presence of ATP by Kinase-Glo reagent based luminescent assay
[3] = Kinetic aqueous solubility of the compound in PBS buffer at pH 7.4 at 250 uM and measured after 24 hrs by UPLC/MS analysis; assay type: physicochemical; conditions: read-out: Kinetic_solubility
[4] = Cmax in CD-1 mouse plasma at 10 mg/kg, po and measured after 30 mins by LC-MS/MS analysis; assay type: ADME, organism-based; parameters: dose 10 mg/kg, time 30 min, route po
[5] = Cmax in CD-1 mouse brain at 10 mg/kg, po and measured after 30 mins by LC-MS/MS analysis; assay type: ADME, organism-based; parameters: dose 10 mg/kg, time 30 min, route po

T1 sequence (P49841 whole entry): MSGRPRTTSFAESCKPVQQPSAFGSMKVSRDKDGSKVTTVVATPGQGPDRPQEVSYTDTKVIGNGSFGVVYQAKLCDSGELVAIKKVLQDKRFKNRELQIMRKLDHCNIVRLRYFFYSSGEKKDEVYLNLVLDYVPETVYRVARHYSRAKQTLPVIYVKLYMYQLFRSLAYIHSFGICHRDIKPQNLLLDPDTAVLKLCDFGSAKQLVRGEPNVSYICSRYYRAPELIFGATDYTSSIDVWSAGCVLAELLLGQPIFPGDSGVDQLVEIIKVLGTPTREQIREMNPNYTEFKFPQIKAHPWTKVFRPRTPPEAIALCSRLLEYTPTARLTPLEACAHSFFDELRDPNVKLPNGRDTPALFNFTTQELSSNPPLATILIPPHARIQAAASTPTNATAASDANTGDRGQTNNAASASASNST
Sequence of Adenosine kinase (P55263 whole entry): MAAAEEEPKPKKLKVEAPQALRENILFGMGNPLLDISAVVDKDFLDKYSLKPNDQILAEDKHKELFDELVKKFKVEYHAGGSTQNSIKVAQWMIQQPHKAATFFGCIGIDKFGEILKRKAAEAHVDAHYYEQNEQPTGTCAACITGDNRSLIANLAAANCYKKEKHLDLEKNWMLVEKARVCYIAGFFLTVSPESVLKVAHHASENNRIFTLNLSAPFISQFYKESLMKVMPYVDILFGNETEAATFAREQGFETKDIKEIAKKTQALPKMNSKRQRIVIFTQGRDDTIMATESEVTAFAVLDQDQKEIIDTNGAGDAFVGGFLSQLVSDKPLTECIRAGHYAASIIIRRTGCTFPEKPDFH
Sequence of Beta-secretase 1 (P56817 whole entry): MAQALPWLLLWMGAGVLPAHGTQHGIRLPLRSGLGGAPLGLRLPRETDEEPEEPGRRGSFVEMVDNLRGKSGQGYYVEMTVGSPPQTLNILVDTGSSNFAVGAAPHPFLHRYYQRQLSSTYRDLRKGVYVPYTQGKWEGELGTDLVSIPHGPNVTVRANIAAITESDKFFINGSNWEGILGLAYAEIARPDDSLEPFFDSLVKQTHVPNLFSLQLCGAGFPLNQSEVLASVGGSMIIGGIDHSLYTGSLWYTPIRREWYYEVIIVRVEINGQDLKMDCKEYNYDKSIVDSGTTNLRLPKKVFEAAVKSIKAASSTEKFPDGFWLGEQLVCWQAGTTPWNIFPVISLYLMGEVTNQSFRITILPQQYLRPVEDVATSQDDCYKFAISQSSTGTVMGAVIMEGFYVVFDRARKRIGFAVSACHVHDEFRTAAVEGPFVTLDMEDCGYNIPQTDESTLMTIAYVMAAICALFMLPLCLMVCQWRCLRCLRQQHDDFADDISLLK

## CCC1(c2ccc(COc3ccccc3)cc2)Oc2ccccc2-n2cccc2C1=O (configuration not stated)
Adenosine kinase
  IC50: 1.2 µM

## COc1cc2c(Br)cc3c(c2cc1OC)C(=O)NC3=O
[1]
  IC50: 0.304 µM

## NC1=NC(c2ccc(F)cc2)CC(=O)N1 (configuration not stated)
Beta-secretase 1
  IC50: 18 µM
[2]
  IC50: 14.7 µM
[3]
  solubility kinetic at 24 h, 250 µM: > 250 µM
[4]
  Cmax: 665 ng/mL
[5]
  Cmax: 0.613 ng/mL
